Reference: US9994594B2, “Inhibitors of arginase and their therapeutic applications” (MARS, INCORPORATED, priority 2010, dated 2018)
Counter-ions that a name gives are not always drawn. Like-named read-outs stand apart in the source and are kept apart here.

Experiments:
human arginase I (ARG I) = target: T1, human arginase I (ARG I) (Homo sapiens, UniProt P05089); experiment: Inhibition of arginase I, spectrophotometric urea assay at 530 nm; type: biochemical; details: read-out: Potency (ARG I)
T1 sequence (P05089 1-322): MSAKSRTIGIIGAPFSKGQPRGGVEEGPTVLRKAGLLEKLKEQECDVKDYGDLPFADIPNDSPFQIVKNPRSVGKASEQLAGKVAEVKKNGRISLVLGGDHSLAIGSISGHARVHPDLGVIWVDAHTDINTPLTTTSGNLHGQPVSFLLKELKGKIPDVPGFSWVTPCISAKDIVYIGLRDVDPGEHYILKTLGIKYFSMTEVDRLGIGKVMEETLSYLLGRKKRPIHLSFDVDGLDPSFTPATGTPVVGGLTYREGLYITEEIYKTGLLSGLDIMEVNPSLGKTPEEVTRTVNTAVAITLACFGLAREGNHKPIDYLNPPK
Procedure: (§1) The assay established the concentration of inhibitor that is required to reduce arginase activity by 50% (IC50).
(§2) Inhibition of arginase I (ARG I) and arginase II (ARG II) by Formula I and Formula II compounds is followed spectrophotometrically at 530 nm. The compound to be tested is dissolved in DMSO at an initial concentration 50-fold greater than its final concentration in the cuvette. 10 μl of the stock solution is diluted in 90 μl of the assay buffer that comprises 0.1M sodium phosphate buffer containing 130 mM NaCl, pH 7.4, to which is added ovalbumin (OVA) at a concentration of 1 mg/ml. Solutions of arginase I and II are prepared in 100 mM sodium phosphate buffer, pH 7.4 containing 1 mg/ml of OVA to give an arginase stock solution at a final concentration of 100 ng/ml.
(§3) To each well of a 96-well microtiter plate is add 40 μl of enzyme, 10 μl of an inventive compound and 10 μl of enzyme substrate (L-arginine+manganese sulfate). For wells that are used as positive controls, only the enzyme and its substrate are added, while wells used as negative controls contain only manganese sulfate.
(§4) After incubating the microtiter plate at 37° C. for 60 minutes, 150 μl of a urea reagent obtained by combining equal proportions (1:1) of reagents A and B is added to each well of the microtiter plate to stop the reaction. The urea reagent is made just before use by combining Reagent A (10 mM o-phthaldialdehyde, and 0.4% polyoxyethylene (23) lauryl ether (w/v) in 1.8 M sulfuric acid) with Reagent B (1.3 mM primaquine diphosphate, 0.4% polyoxyethylene (23) lauryl ether (w/v), 130 mM boric acid in 3.6 M sulfuric acid). After quenching the reaction mixture, the microtiter plate is allowed to stand for an additional 10 minutes at room temperature to allow color development. The inhibition of arginase is computed by measuring the optical density (OD) of the reaction mixture at 530 nm and normalizing the OD value to percent inhibition observed in the control. The normalized OD is then used to generate a dose-response curve by plotting the normalized OD values against log [concentration] and using regression analysis to compute the IC50 values.

arginase II (ARG II) = target: T2, arginase II (ARG II) (Homo sapiens, UniProt P78540); experiment: Inhibition of arginase II, spectrophotometric urea assay at 530 nm; type: biochemical
T2 sequence (P78540 23-354): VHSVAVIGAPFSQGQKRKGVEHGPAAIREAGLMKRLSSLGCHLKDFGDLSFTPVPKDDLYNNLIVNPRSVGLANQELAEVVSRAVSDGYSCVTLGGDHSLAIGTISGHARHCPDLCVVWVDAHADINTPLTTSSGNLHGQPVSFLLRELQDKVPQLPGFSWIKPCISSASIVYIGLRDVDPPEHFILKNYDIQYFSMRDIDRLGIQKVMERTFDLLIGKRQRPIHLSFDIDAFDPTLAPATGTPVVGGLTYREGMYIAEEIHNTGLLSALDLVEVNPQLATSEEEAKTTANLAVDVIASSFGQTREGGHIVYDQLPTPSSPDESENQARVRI
Procedure: as §1, §2, §3, §4

[1] = Formula I compounds, Table 2, read-out: Potency (ARG II)
[2] = Formula II compounds, Table 2-A
[3] = Formula II compounds, Table 2-A, read-out: Potency (ARG)

Compound | IC50 (human arginase I (ARG I); Formula I compounds, Table 2) [µM] | IC50 (arginase II (ARG II); [1]) [µM] | IC50 (human arginase I (ARG I); [2]) [µM] | IC50 (arginase II (ARG II); [3]) [µM]
NC(CCCCB(O)O)(CCN1CC=C(c2ccccc2)CC1)C(=O)O (centres unmarked) [compound 28, 2-amino-6-borono-2-(2-(4-phenyl-5,6-dihydropyridin-1(2H)-yl)ethyl)hexanoic acid dihydrochloride] | 0.251 to 1 | 1 to 2 | – | –
NC(CCCCB(O)O)(C(=O)O)C1CCN(c2ncc(Cl)cc2Cl)CC1 (centres unmarked) [8-A, 2-amino-6-borono-2-(1-(3,5-dichloropyridin-2-yl)piperidin-4-yl)hexanoic acid] | – | – | 2 to 5 | 2 to 5
NC(CCCCB(O)O)(C(=O)O)C1CCN(Cc2ccccc2N2CCOCC2)CC1 (centres unmarked) [Example 54-A, 2-amino-6-borono-2-(1-(2-morpholinobenzyl)piperidin-4-yl)hexanoic acid dihydrochloride] | – | – | 0.0001 to 0.25 | 0.251 to 1
NC(CCCCB(O)O)(CCN1CCN(c2ccccc2)CC1)C(=O)O (centres unmarked) [compound 76, 2-amino-6-borono-2-(2-(4-phenylpiperazin-1-yl)ethyl)hexanoic acid dihydrochloride] | > 5 | > 5 | – | –
COc1ccc(CC2(NCCC(N)(CCCCB(O)O)C(=O)O)CC2)cc1 (centres unmarked) [compound 61, 2-amino-6-borono-2-(2-(1-(4-methoxybenzyl)cyclopropylamino)ethyl)hexanoic acid] | 0.251 to 1 | 1 to 2 | – | –
NC(CCCCB(O)O)(C(=O)O)[C@H]1C[C@@H](NCc2cc3c(cc2Cl)OCO3)C1 (stereo partly drawn) [Example 78-A, cis-2-amino-6-borono-2-(3-((6-chlorobenzo[d][1,3]dioxol-5-yl)methylamino)cyclobutyl)hexanoic acid dihydrochloride] | – | – | 0.0001 to 0.25 | 0.0001 to 0.25
NC(CCCCB(O)O)(CCNCCCc1ccc(Cl)cc1Cl)C(=O)O (centres unmarked) [compound 66, 2-amino-6-borono-2-(2-(3-(2,4-dichlorophenyl)propylamino)ethyl)hexanoic acid dihydrochloride] | 0.0001 to 0.25 | 0.0001 to 0.25 | – | –
N[C@@](CCCCB(O)O)(C(=O)O)[C@H]1CCN(c2ccc(Cl)cc2)C1 [12-A, (R)-2-amino-6-borono-2-((S)-1-(4-chlorophenyl)pyrrolidin-3-yl)hexanoic acid hydrochloride] | – | – | 2 to 5 | 2 to 5
COC1CCN(CCC(N)(CCCCB(O)O)C(=O)O)CC1 (centres unmarked) [compound 41, 2-amino-6-borono-2-(2-(4-methoxypiperidin-1-yl)ethyl)hexanoic acid dihydrochloride] | 1 to 2 | 2 to 5 | – | –
CN(CC[C@](N)(CCCCB(O)O)C(=O)O)C[C@@H](O)c1cccc(O)c1 [compound 12, (R)-2-amino-6-borono-2-(2-(((S)-2-hydroxy-2-(3-hydroxyphenyl)ethyl)(methyl)amino)ethyl)hexanoic acid dihydrochloride] | 0.0001 to 0.25 | 0.0001 to 0.25 | – | –
NC(CCCCB(O)O)(CCN1CCCC1)C(=O)O (centres unmarked) [compound 16, 2-amino-6-borono-2-(2-(pyrrolidin-1-yl)ethyl)hexanoic acid] | 0.251 to 1 | 1 to 2 | – | –
NC(CCCCB(O)O)(CC1CN(CCc2ccc(Cl)cc2Cl)C1)C(=O)O (centres unmarked) [compound 118, 2-amino-6-borono-2-((1-(2,4-dichlorophenethyl)azetidin-3-yl)methyl)hexanoic acid dihydrochloride] | 0.251 to 1 | 0.251 to 1 | – | –
NC(CCCCB(O)O)(CC1CNC1)C(=O)O (centres unmarked) [compound 123, 2-amino-2-(azetidin-3-ylmethyl)-6-boronohexanoic acid dihydrochloride] | 2 to 5 | > 5 | – | –
NC(CCCCB(O)O)(CCN1CCN(c2ncccn2)CC1)C(=O)O (centres unmarked) [compound 17, 2-Amino-6-borono-2-[2-(4-pyrimidin-2-yl-piperazin-1-yl)ethyl]-hexanoic acid trihydrochloride] | 2 to 5 | 2 to 5 | – | –
NC(CCCCB(O)O)(CCN1CCC(Cc2ccccc2)CC1)C(=O)O (centres unmarked) [compound 125, 2-amino-2-(2-(4-benzylpiperidin-1-yl)ethyl)-6-boronohexanoic acid dihydrochloride] | 0.251 to 1 | 0.251 to 1 | – | –
N[C@](CCCCB(O)O)(C[C@H]1CCCN1)C(=O)O (stereo in doubt) [compound 115, (R)-2-amino-6-borono-2-((R)-pyrrolidin-2-ylmethyl)hexanoic acid] | 0.0001 to 0.25 | 0.0001 to 0.25 | – | –
NC(CCCCB(O)O)(C(=O)O)C1CCN(c2ncc(C(F)(F)F)cc2Cl)CC1 (centres unmarked) [10-A, 2-amino-6-borono-2-(1-(3-chloro-5-(trifluoromethyl)pyridin-2-yl)piperidin-4-yl)hexanoic acid dihydrochloride] | – | – | 2 to 5 | 2 to 5
NC(CCCCB(O)O)(CNC1CCOCC1)C(=O)O (centres unmarked) [compound 87, 2-amino-6-borono-2-((tetrahydro-2H-pyran-4-ylamino)methyl)hexanoic acid dihydrochloride] | 1 to 2 | 1 to 2 | – | –
NC(CCCCB(O)O)(C(=O)O)C1CCN(Cc2cccc3cccnc23)CC1 (centres unmarked) [Example 56-A, 2-amino-6-borono-2-(1-(quinolin-8-ylmethyl)piperidin-4-yl)hexanoic acid dihydrochloride] | – | – | 0.0001 to 0.25 | 0.251 to 1
NC(CCCCB(O)O)(CCNCCCc1cc(C(F)(F)F)ccc1Cl)C(=O)O (centres unmarked) [compound 64, 2-amino-6-borono-2-(2-(3-(2-chloro-5-(trifluoromethyl)phenyl)propylamino)ethyl)hexanoic acid dihydrochloride] | 0.0001 to 0.25 | 0.0001 to 0.25 | – | –
NC(CCCCB(O)O)(CCNC1CC1)C(=O)O (centres unmarked) [compound 68, 2-amino-6-borono-2-(2-(cyclopropylamino)ethyl)hexanoic acid dihydrochloride] | 0.251 to 1 | 0.251 to 1 | – | –
NC(CCCCB(O)O)(C(=O)O)C1CCN(C(=O)c2ccccc2)CC1 (centres unmarked) [30-A, 2-amino-6-borono-2-[1-benzoylpiperidin-4-yl]hexanoic acid hydrochloride] | – | – | 2 to 5 | 2 to 5
CN1CCCN(CCC(N)(CCCCB(O)O)C(=O)O)CC1 (centres unmarked) [compound 49, 2-amino-6-borono-2-(2-(4-methyl-1,4-diazepan-1-yl)ethyl)hexanoic acid dihydrochloride] | 2 to 5 | 2 to 5 | – | –
CCCNCC(N)(CCCCB(O)O)C(=O)O (centres unmarked) [compound 83, 2-amino-6-borono-2-((propylamino)methyl)hexanoic acid dihydrochloride] | 2 to 5 | 2 to 5 | – | –
CN(CCC(N)(CCCCB(O)O)C(=O)O)CC(=O)O (centres unmarked) [compound 18, 2-amino-6-borono-2-(2-((carboxymethyl)(methyl)amino)ethyl)hexanoic acid dihydrochloride] | 2 to 5 | 2 to 5 | – | –
CN(CCc1ccccc1)CC[C@](N)(CCCCB(O)O)C(=O)O [compound 11, (R)-2-amino-6-borono-2-(2-(methyl(phenethyl)amino)ethyl) hexanoic acid dihydrochloride] | 0.0001 to 0.25 | 0.0001 to 0.25 | – | –
NC(CCCCB(O)O)(CC(=O)O)C(=O)O (centres unmarked) [compound 106, 2-amino-2-(4-boronobutyl)succinic acid hydrochloride] | > 5 | > 5 | – | –
CNC(CCCCB(O)O)(CCCN1CCCCC1)C(=O)O (centres unmarked) [compound 148, 6-borono-2-(methylamino)-2-(3-(piperidin-1-yl)propyl)hexanoic acid dihydrochloride] | 0.0001 to 0.25 | 0.0001 to 0.25 | – | –
